Consider one compound from publication PMC8706783 (Pharmaceutics, 2021).

This test concerns the target T1, UGT2B7 (Homo sapiens, UniProt P16662).
T1 sequence (P16662 24-529): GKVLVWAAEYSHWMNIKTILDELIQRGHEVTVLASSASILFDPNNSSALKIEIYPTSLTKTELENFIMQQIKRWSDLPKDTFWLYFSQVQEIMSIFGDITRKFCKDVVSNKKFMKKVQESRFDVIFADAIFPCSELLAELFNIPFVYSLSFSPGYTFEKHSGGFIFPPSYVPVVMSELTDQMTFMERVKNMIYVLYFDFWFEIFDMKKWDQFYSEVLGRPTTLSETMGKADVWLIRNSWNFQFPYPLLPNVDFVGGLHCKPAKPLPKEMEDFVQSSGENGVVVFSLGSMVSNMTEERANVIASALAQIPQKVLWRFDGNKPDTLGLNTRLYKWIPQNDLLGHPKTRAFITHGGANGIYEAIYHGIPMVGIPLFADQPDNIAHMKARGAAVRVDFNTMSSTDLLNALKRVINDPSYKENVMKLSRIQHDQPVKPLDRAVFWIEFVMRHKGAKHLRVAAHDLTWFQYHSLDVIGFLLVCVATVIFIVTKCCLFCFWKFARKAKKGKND
The test can be described thus: Enzyme inhibition assay, UGT2B7. Type of test: in vitro ADME. Set-up: from tissue. As to conditions: HLM; UGT2B7 zidovudine glucuronidation.

`Cc1cc(C)c(Nc2ccnc(Nc3ccc(C#N)cc3)n2)c(C)c1` [DPV, Dapivirine]: the IC50 (usually the concentration needed to halve the response being measured) was determined as 17.2 µM.
